Measured values reported in patent publication US20240245680A1, “Methods of Treating Retinal Vasculopathies” (Unity Biotechnology, Inc., priority 2021, published 2024).
pIC50: −log10 of the molar value. Where a name gives a salt, the structure may show the parent alone.

Columns and labels:
[1] = test system: irradiated, senescent HRMEC cells; assay: Senolytic assay: irradiated senescent vs non-senescent HRMEC cells (CellTiter-Glo); format: cell-based, human; conditions: 1:3 dilution series, dose-dependent (FIG. 3A, FIG. 5)
Excerpt: (§1) The ability of candidate agents to eliminate senescent retinal vascular endothelial cells or senescent retinal pigmented epithelial cells can be measured directly in the following assay. Human retinal microvascular endothelial cells (HRMEC) can be obtained from Neuromics® with the designation HEC09 or Cell Systems ACBRI 181. Human umbilical vein endothelial cells (HUVEC) can be obtained from Lonza® with the designation CC-2519. The cells can be maintained and propagated at <75% confluency in ENDO-Growth® Media (Neuromics®, Edina M N) at 3% O2, 10% CO2, and ˜95% humidity. Human retinal pigmented epithelial cells (RPE) can be obtained from Lonza® with the designation 194987. […]
(§2) On day 0, the irradiated HRMEC or RPE or HUVEC cells can be incubated with TrypLE trypsin-containing reagent (Thermofisher® Scientific, Waltham, Massachusetts) until the cells round up and begin to detach from the plate. Cells can then be dispersed, counted, and prepared in medium at a concentration of 100,000 cells per mL. […] On day 3, the quiescent healthy non-senescent HRMEC or RPE cells can be trypsinized from the culture flask as described above, and the cells can be dispersed, counted, and prepared in medium at a concentration of 80,000 cells per mL. […]

[2] = test system: irradiated, senescent HUVEC cells; assay: Senolytic assay: irradiated senescent vs non-senescent HUVEC cells (CellTiter-Glo); format: cell-based, human; conditions: 1:3 dilution series, dose-dependent (FIG. 3B, 4, 6A, 6B)
Excerpt: as §1, §2

GPX4 = biological target: T1, GPX4 (Mus musculus, UniProt O70325); assay: GPX4 competitive target engagement gel-shift assay, adult murine retinas; format: in vivo; conditions: integrated band density (FIGS. 8A-8C)
T1 construct: from tissue; host or cells: adult murine retina
T1 sequence (O70325 whole entry): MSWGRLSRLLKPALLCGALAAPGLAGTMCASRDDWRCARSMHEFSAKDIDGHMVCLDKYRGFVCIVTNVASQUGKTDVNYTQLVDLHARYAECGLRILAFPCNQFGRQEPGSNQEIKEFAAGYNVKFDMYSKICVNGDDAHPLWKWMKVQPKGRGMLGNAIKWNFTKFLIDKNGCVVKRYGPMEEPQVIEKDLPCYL
Experimental: A gel shift assay was developed for the detection of either in vitro cell line or in vivo tissue target engagement (TE) of a GPX4 inhibitor. See FIG. 7 for a schematic of the assay.
In vitro labeling protocol: Two frozen murine retinas were added directly to 0.5 mL Precellys® tubes with ceramic beads and 200 μL of cold mPER with 1× Roche EDTA-free protease inhibitors and 5 mM TCEP. The retina tissue was homogenized using a single 15 s burst at 4500 RPM at 4° C. The tubes were spun at 5 k×g for 5 min @ 4° C. to remove the foam, then all liquid was transferred to 1.5 mL Eppendorfs®. The samples were spun @ 20 k×g for 10 min at 4° C., and the clarified lysates were transferred to clean tubes. 27.5 μL of each of the vehicle controls were combined into one tube to provide a labeling standard sample.
For the labeling control, 50 μL of sample was added to 1 μL of 5 mM RSL3 and another 50 μL of sample was added to DMSO as a control. The samples were mixed and incubated for 1 hr at room temperature (RT). […]
Blots were blocked with 5% Milk in TBST for 1 hr. […] Anti-rabbit-HRP was used at 1:5000 in 5% milk in TBST for ˜1 hr RT and signal was detected using the Western Pico® ECL reagent. […] The integrated density of bands for +/−streptavidin was quantitated using ImageJ® (National Institutes of Health).

[3] = biological target: T2, transglutaminase 2 (TGase 2) (Homo sapiens, UniProt P21980); conditions: under a modified assay condition; cited from earlier work
T2 sequence (P21980 1-687): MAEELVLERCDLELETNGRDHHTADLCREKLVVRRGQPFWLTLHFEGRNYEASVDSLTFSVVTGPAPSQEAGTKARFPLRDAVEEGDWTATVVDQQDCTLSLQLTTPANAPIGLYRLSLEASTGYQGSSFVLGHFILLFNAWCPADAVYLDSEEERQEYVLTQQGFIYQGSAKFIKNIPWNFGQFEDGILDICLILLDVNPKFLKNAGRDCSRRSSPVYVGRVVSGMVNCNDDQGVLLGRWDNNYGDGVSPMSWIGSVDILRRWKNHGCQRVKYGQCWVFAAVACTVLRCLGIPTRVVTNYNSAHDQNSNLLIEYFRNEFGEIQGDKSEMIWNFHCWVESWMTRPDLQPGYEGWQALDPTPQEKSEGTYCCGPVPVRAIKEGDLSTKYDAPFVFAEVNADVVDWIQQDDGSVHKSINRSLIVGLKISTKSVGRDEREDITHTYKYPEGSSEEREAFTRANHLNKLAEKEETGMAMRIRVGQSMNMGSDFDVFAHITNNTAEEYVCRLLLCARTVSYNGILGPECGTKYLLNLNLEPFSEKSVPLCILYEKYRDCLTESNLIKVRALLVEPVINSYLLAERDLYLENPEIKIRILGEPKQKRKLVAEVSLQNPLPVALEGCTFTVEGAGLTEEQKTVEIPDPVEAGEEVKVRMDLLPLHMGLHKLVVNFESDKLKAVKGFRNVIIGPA

GLS2 = biological target: T3, GLS2 (Homo sapiens, UniProt Q9UI32); conditions: cited from earlier work
T3 sequence (Q9UI32 15-602): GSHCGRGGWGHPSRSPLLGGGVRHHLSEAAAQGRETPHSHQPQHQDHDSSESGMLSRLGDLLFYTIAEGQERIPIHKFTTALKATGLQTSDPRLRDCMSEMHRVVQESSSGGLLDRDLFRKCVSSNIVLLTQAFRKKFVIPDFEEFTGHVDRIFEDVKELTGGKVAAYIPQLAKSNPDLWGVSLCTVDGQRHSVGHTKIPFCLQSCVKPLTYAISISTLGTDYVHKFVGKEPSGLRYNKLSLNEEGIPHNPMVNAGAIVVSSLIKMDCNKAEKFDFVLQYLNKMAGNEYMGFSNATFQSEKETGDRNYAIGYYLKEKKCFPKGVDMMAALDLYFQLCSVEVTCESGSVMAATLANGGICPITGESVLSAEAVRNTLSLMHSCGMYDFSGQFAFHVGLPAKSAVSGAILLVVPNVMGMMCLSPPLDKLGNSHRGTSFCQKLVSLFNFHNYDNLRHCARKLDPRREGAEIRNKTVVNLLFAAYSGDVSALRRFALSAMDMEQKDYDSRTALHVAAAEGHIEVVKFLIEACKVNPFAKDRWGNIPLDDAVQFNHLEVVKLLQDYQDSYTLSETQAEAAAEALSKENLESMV

[4] = biological target: T4, cKGA (kidney-type glutaminase) (Homo sapiens, UniProt O94925); conditions: cited from earlier work
T4 sequence (O94925 221-533 limits assumed): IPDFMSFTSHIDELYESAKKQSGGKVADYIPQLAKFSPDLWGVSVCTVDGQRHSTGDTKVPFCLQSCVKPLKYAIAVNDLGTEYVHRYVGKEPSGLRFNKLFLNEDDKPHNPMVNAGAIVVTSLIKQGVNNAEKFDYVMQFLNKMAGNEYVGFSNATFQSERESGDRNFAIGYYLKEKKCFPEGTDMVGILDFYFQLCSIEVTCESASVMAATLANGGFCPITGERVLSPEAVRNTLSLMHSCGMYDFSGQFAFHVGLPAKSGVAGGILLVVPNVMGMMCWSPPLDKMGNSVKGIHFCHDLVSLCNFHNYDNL

Cc1onc(C(=O)N2CCN(C(c3ccc(Cl)cc3)c3ccc(Cl)cc3)CC2)c1[N+](=O)[O-] [ML210]
selective killing of senescent HRMEC cells as compared to non-senescent HRMECs [1]: selectively senolytic

COC(=O)c1ccc([C@H]2c3[nH]c4ccccc4c3C[C@H](C(=O)OC)N2C(=O)CCl)cc1 [RSL3, (1S,3R)-methyl 2-(2-chloroacetyl)-1-(4-(methoxycarbonyl)phenyl)-2,3,4,9-tetrahydro-1H-pyrido[3,4-b]indole-3-carboxylate]
selective killing of senescent HUVEC cells as compared to non-senescent HUVECs [2]: selectively senolytic | selective killing of senescent HRMEC cells as compared to non-senescent HRMECs [1]: selectively senolytic | GPX4 target engagement (TE) (GPX4): dose-dependent GPX4 TE

GK921
pIC50 [3]: 5.05

O=C(/C(C[N+](=O)[O-])=N/O)N1CCN(C(c2ccc(Cl)cc2)c2ccc(Cl)cc2)CC1 [JKE-1674, (E)-1-(4-(bis(4-chlorophenyl)methyl)piperazin-1-yl)-2-(hydroxyimino)-3-nitropropan-1-one]
selective killing of senescent HUVEC cells as compared to non-senescent HUVECs [2]: selectively senolytic

CNC(=O)c1cn(C[C@H](F)CCc2ccc(NC(=O)Cc3cc(OC4CC(F)(F)C4)cc(C)n3)nn2)nn1 [IPN-60090 dihydrochloride]
activity against GLS-2 (GLS2): no activity observed

[N-]=[N+]=CC(=O)CC[C@H](N)C(=O)O [6-Diazo-5-oxo-L-norleucine]
pIC50 [4]: ~3.00
